Results taken from patent publication US8436037B2, “Process for the production of amides” (Syngenta Limited, priority 2005, dated 2013).

Key:
[1] = thermodynamic stability (DSC, solubility tests and other experiments); assay type: physicochemical; details: compared with modification A
Protocol: Characteristic for modification B is also the thermogram in DSC (differential scanning calorimetry, see FIG. 5). It has an endothermic peak in the range from 120° C. to 128° C. depending on purity. For example, crystal modification B in pure form has a peak temperature of 128° C. and an endothermic signal around 90 J/g. This thermogram is characteristically different from the thermogram of the modification A (see FIG. 6), which has an endothermic peak at about 112° C. and an endothermic signal of 76 J/g. The measurement was carried out on a Metier Toledo 820 DSC in a closed pan with a heating rate of 10 K/minute. The typical sample quantity is about 5 mg.

[2] = water solubility of crystal modifications; assay type: physicochemical; details: over relevant temperature ranges; compared with modification A

For `CC(C)C1C2CCC1c1c(NC(=O)c3cn(C)nc3C(F)F)cccc12` (stereo not drawn) [modification B, syn-3-difluoromethyl-1-methyl-1H-pyrazole-4-carboxylic acid (9-isopropyl-1,2,3,4-tetrahydro-1,4-methano-naphthalen-5-yl)-amide], the thermodynamic stability [1] was “substantially better thermodynamic stability than the modification A” and the water solubility [2] was “lower than the water solubility of modification A”.
